PubChem BioAssay (NCI)
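Where inhibition never reached the appropriate level, the endpoint shown equals the highest concentration tested. Otherwise, values were interpolated linearly from a five-concentration, 48-hour dose response in 96-well plates. TGI is the concentration that stops growth completely.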

Experiments:
Assay in all cases: inhibition of tumour cell growth, NCI panel, 48 h
OVCAR-5 ovarian = tested on: OVCAR-5 ovarian
MALME-3M melanoma = tested on: MALME-3M melanoma
SNB-19 CNS = tested on: SNB-19 CNS
SF-539 CNS = tested on: SF-539 CNS
RPMI-8226 leukemia = tested on: RPMI-8226 leukemia
TK-10 renal = tested on: TK-10 renal
EKVX NSCLC = tested on: EKVX NSCLC
MOLT-4 leukemia = tested on: MOLT-4 leukemia
MDA-N = tested on: MDA-N
T-47D breast = tested on: T-47D breast
NCI-H522 lung = tested on: NCI-H522 lung
HS 578T breast = tested on: HS 578T breast
HL-60(TB) leukemia = tested on: HL-60(TB) leukemia
SK-MEL-28 melanoma = tested on: SK-MEL-28 melanoma
NCI-H23 lung = tested on: NCI-H23 lung
OVCAR-4 ovarian = tested on: OVCAR-4 ovarian
HCT-15 colon = tested on: HCT-15 colon
SW-620 colon = tested on: SW-620 colon
MCF7 breast = tested on: MCF7 breast
OVCAR-8 ovarian = tested on: OVCAR-8 ovarian

Row | Structure (SMILES) | TGI (OVCAR-5 ovarian) [µM] | TGI (MALME-3M melanoma) [µM] | TGI (SNB-19 CNS) [µM] | TGI (SF-539 CNS) [µM] | TGI (RPMI-8226 leukemia) [µM] | TGI (TK-10 renal) [µM] | TGI (EKVX NSCLC) [µM] | TGI (MOLT-4 leukemia) [µM] | TGI (MDA-N) [µM] | TGI (T-47D breast) [µM] | TGI (NCI-H522 lung) [µM] | TGI (HS 578T breast) [µM] | TGI (HL-60(TB) leukemia) [µM] | TGI (SK-MEL-28 melanoma) [µM] | TGI (NCI-H23 lung) [µM] | TGI (OVCAR-4 ovarian) [µM] | TGI (HCT-15 colon) [µM] | TGI (SW-620 colon) [µM] | TGI (MCF7 breast) [µM] | TGI (OVCAR-8 ovarian) [µM]
1 | O=C(O)CC(NC(=O)/C(=C/c1ccccc1)NC(=O)c1ccccc1)C(=O)O (configuration not stated) | > 100 | > 100 | > 100 | > 100 | > 100 | > 100 | > 100 | > 100 | > 100 | > 100 | > 100 | > 100 | > 100 | > 100 | > 100 | > 100 | > 100 | > 100 | > 100 | > 100
2 | CCOC(=O)C(NC(C)=O)(Nc1ccc(S(N)(=O)=O)cc1)C(F)(F)F (configuration not stated) | > 100 | > 100 | > 100 | > 100 | > 100 | > 100 | > 100 | > 100 | > 100 | > 100 | > 100 | > 100 | > 100 | > 100 | > 100 | > 100 | > 100 | > 100 | > 100 | > 100
3 | CC(=O)NCCCCN(CCCNC(C)=O)C(=O)CNS(=O)(=O)c1cccc2c(N(C)C)cccc12 | > 100 | > 100 | > 100 | > 100 | > 100 | > 100 | > 100 | > 100 | > 100 | > 100 | > 100 | > 100 | > 100 | > 100 | > 100 | > 100 | > 100 | > 100 | > 100 | –
4 | O=C(O)c1ccccc1CC1Cc2cc3c(cc2C1)CCC3 | > 100 | > 100 | > 100 | > 100 | > 100 | > 100 | > 100 | > 100 | > 100 | 85.6 | > 100 | > 100 | > 100 | > 100 | > 100 | > 100 | > 100 | > 100 | > 100 | > 100
5 | O=S1(=O)c2ccccc2C(Nc2ccccc2)N1c1ccccc1 (configuration not stated) | > 100 | > 100 | – | > 100 | > 100 | > 100 | > 100 | > 100 | > 100 | 80 | 67.9 | > 100 | > 100 | > 100 | > 100 | > 100 | > 100 | > 100 | > 100 | > 100
6 | COc1cc2c(c(O)c1OC)C(=O)[C@@H]1CCC(=O)N1C2c1ccccc1 (some centres not stated) | > 100 | > 100 | > 100 | > 100 | > 100 | > 100 | > 100 | > 100 | > 100 | > 100 | > 100 | > 100 | > 100 | > 100 | > 100 | > 100 | > 100 | > 100 | > 100 | > 100
7 | CC(NCc1c(O)ccc2ccc(=O)oc12)C(=O)O (configuration not stated) | > 100 | > 100 | > 100 | > 100 | > 100 | > 100 | > 100 | > 100 | > 100 | > 100 | > 100 | > 100 | > 100 | > 100 | > 100 | > 100 | > 100 | > 100 | > 100 | > 100
8 | CCOC(=O)C1(C#N)C(=O)c2cc[n+](CC[n+]3ccc4c(c3)C(=O)C(C#N)(C(=O)OCC)C4=O)cc2C1=O (configuration not stated) | > 100 | > 100 | > 100 | > 100 | > 100 | – | > 100 | > 100 | > 100 | > 100 | > 100 | > 100 | > 100 | > 100 | > 100 | > 100 | > 100 | > 100 | > 100 | > 100
9 | CCC/C(Cl)=N/OC(=O)Nc1cc(C(F)(F)F)ccc1OC | 32.1 | 7.34 | 31.5 | 28.6 | 6.05 | 32.5 | 19.9 | 6.01 | 25 | 15.6 | 2.99 | > 72.2 | > 100 | 28.3 | 37.2 | 9.75 | 16.6 | 11.4 | 27.7 | 29.8
10 | Cc1c2c(nc3ccccc13)C(=O)c1cccnc1C2=O | > 100 | 3.56 | 92.3 | 54.2 | > 100 | > 100 | 88 | 64.7 | 3.16 | 87.8 | 47.8 | > 100 | 41.4 | 94.7 | 73.1 | > 100 | > 100 | > 100 | 30.1 | 77.9
11 | Cc1c(/C=N/NC(=S)Nc2ccc(Cl)cc2)c(=O)n(-c2ccccc2)n1C | > 100 | > 60.3 | > 60.8 | 28.2 | > 100 | > 58.3 | > 65.2 | > 100 | > 100 | > 83.9 | 22.4 | 50.8 | > 100 | > 100 | 54.5 | > 57.1 | > 100 | > 100 | > 54.9 | > 60.6
12 | O=C(O)C1(Cc2ccccc2)Cc2cc3c(cc2C1)CCC3 | > 100 | > 100 | > 100 | > 100 | > 100 | > 100 | > 100 | > 100 | > 100 | > 100 | > 100 | > 100 | > 100 | > 100 | > 100 | > 100 | > 100 | > 100 | > 100 | > 100
13 | N#CC(C#N)=C/C=C/c1c(Cl)cccc1Cl | – | 3.15 | > 10 | 2.96 | 7.46 | 6.24 | > 10 | 9.01 | 3.23 | 6.19 | 3.06 | 5.55 | 4.04 | 3.05 | 2.87 | 3.49 | 4.01 | 4.21 | 7.04 | 3.48
14 | O=C1/C(=C/c2ccc(O)cc2)CCc2ccc([N+](=O)[O-])cc21 | > 100 | > 100 | 98.7 | > 100 | > 100 | > 100 | > 100 | > 100 | > 100 | > 100 | > 30.8 | > 79.8 | > 100 | > 100 | > 100 | > 100 | > 100 | > 100 | > 100 | > 100
15 | O=C(NNC1=NCCCN1)c1ccco1 | > 100 | > 100 | > 100 | > 100 | > 100 | > 100 | > 100 | > 100 | > 100 | > 100 | > 100 | > 100 | > 100 | > 100 | > 100 | > 100 | > 100 | > 100 | > 100 | > 100
16 | CC1C2CC(CC2(C)O)C1(C)C (configuration not stated) | > 100 | > 100 | > 100 | > 100 | – | > 100 | > 100 | > 100 | > 100 | > 100 | > 100 | > 100 | > 100 | > 100 | > 100 | > 100 | – | > 100 | > 100 | > 100
17 | N/N=C(\c1nc2ccc([N+](=O)[O-])cc2[nH]c1=O)C(O)c1ccc(Cl)c(Cl)c1 (configuration not stated) | > 100 | > 100 | > 100 | > 100 | > 100 | > 100 | > 100 | > 100 | > 100 | > 100 | > 100 | > 100 | > 100 | > 100 | > 100 | > 100 | > 100 | > 100 | > 100 | > 100
18 | CN(C)Cc1cc(C(=O)/C=C/c2ccc(Cl)c(Cl)c2)cc(CN(C)C)c1O | 20.9 | 10.4 | 11.6 | 8.93 | > 100 | – | 20.8 | 10.5 | 10.9 | 19.9 | 3.31 | 8.74 | > 100 | 10.3 | 19.9 | 15.4 | 12.7 | 3.19 | 12.3 | 4.9
19 | CCOC(=O)C1(C/C=C/CCl)CCCC1=O (configuration not stated) | 39.1 | 45.4 | 61.2 | 40.6 | – | 68.4 | 37.9 | > 100 | 35.1 | 51.3 | 47 | > 100 | > 100 | 50.6 | 38.3 | 93.7 | 40 | 42.1 | 48.4 | 38.2
